Experimental findings from patent US20130184272A1, “DIABETES THERAPEUTIC AGENT” (TAKEDA PHARMACEUTICAL COMPANY LIMITED, priority 2010, published 2013) are described below.

In assay [1] the test system is Mouse-derived myoblast line C2C12 cell. The experiment in a line: Cell differentiation promoting activity in myoblast (creatine kinase activity). Format: cell-based. The note with it: 2 days, without compound = 100%; for activity at 0.01 µM / activity at 1 µM: Mus musculus, C2C12, 48 h, read-out: creatine kinase activating action (%); for activity at 0.01 µM: compound at 0.01 μM (**). On the procedure: • (1) Mouse-derived myoblast line C2C12 cell (Dainippon Pharmaceutical Co., Ltd.) was subcultured in a high glucose Eagle's modified Dulbecco's medium (GIBCO) added with 10% calf fetal bovine serum (GIBCO), 100 unit/mL penicillin and 100 μg/mL streptomycin (hereinafter to be referred to as a growth medium), plated at 5000 cells/cm^2 and cultured at 37° C., under 5% CO2. • (2) When the cells reached subconfluence of not less than 90%, the medium was exchanged with high glucose Eagle's modified Dulbecco's medium (GIBCO) added with (i) 2% horse serum (GIBCO) and (ii) penicillin, streptomycin and a test compound (hereinafter to be referred to as a differentiation medium) and the cells were cultured for 2 days. To the control group was added DMSO solution instead of the test compound. • (3) The cells were washed with PBS, 0.5% NP-40 solution was added, and the cells were lysed by freeze-thawing. The cell extract was centrifuged and the creatine kinase activity in the supernatant was measured as an index of muscle differentiation. The creatine kinase activity was measured using CPKII Test Wako (Wako Pure Chemical Industries, Ltd.) according to the manual of the kit.
The numerical values in Table 1 show creatine kinase activity of the compound addition group when the creatine kinase activity without addition of the compound is 100%, and * means measurement with addition of the compound at 10 μM, ** at 0.01 μM, and others at 1 μM.

The next assay concerns C2C12 cell. Nature of the assay: Sugar metabolism promoting activity in muscle cell (lactic acid production). It is filed as cell-based, Mouse. The note with it: compound 1 μM, 2 days, C2C12 myotubes, without drug = 100%; for activity at 1 µM: Mus musculus, 48 h, read-out: lactic acid production promoting action (%). On the procedure:
• (1) In the same manner as in Example 1, C2C12 cell was cultured in a growth medium. After reaching subconfluence of not less than 90%, the medium was exchanged with a differentiation medium and the cells were cultured for about 7 days while exchanging the medium every 2 or 3 days until the cells differentiated to form a myotube. • (2) After confirmation of myotube formation under a microscope, the test compound (1 μM) was added to a differentiation medium and cultured for 2 days. The cells were washed with Krebs-Ringer HEPES phosphate buffer (10 mM HEPES, pH 7.4, 131 mM NaCl, 4.7 mM KCl, 2.5 mM CaCl2—2H2O, 1.2 mM MgSO4—7H2O, 1.2 mM KH2PO4), the medium was exchanged with Krebs-Ringer HEPES phosphate buffer added with 5 mM glucose, 0.2% fatty acid-free bovine serum albumin, and cultured at 37° C. for 4 hr. • (3) The lactic acid concentration of the culture supernatant was measured using Detarminer LA kit (Kyowa Medex Co., Ltd.).
The numerical values in Table 2 show the concentration of the compound addition group with the concentration of lactic acid without addition of a drug as 100%.

The next assay has as its system Female KKA^y mice. The experiment in a line: Anti-diabetes action and dyslipidemia improving effect in KKA^y mouse. It is filed as in vivo. The note with it: 2 weeks, control group = 100. The protocol:
Female KKA^y mice (12-week-old, CLEA Japan, Inc.) were bred while allowing free ingestion of both feed and water. The mice were bred for acclimation with powder CE-2 (CLEA Japan, Inc.) from 2 weeks before administration of the compound. The body weight and plasma markers were measured and, at 14 weeks of age, they were divided such that the measured values were uniform with those of the control group. The compound of Reference Example 1, 2, 7, 8, 9 or 22 was administered for 2 weeks in a mixed feed (0.01-0.0001%). On the last day, plasma levels of glucose, insulin, total cholesterol and neutral lipid were measured.

Consider `Cn1ncc2c1-c1c(Oc3ccc(F)cc3)sc(C(N)=O)c1CC2` [Ref. Ex. 2, 8-(4-fluorophenoxy)-1-methyl-4,5-dihydro-1H-thieno[3,4-g]indazole-6-carboxamide], for which, in assay [1], the activity at 0.01 µM came out at 175%. The activity at 1 µM with C2C12 cell is 159%. In addition, in the assay with Female KKA^y mice (mixed feed dose 0.0003 %), the “plasma glucose (%)” value amounted to 49.0 ± 7.1%, the “plasma neutral lipid (%)” value is reported as 40.4 ± 6.6% and the “plasma total cholesterol (%)” value came to 62.4 ± 7.1%.
Take `CC(=O)Nc1ccc(Oc2sc(C(N)=O)c3c2-c2c(cnn2C)CC3)cc1` [Ref. Ex. 22, 8-[4-(acetylamino)phenoxy]-1-methyl-4,5-dihydro-1H-thieno[3,4-g]indazole-6-carboxamide]: the activity at 0.01 µM in assay [1] worked out at 195%. The activity at 1 µM in the assay with C2C12 cell was found to be 311%. Besides, in the assay with Female KKA^y mice (mixed feed dose 0.0003 %), the “plasma glucose (%)” value came to 60.9 ± 27.1%, the “plasma neutral lipid (%)” value is recorded as 42.3 ± 7.2% and the “plasma total cholesterol (%)” value was 71.0 ± 7.3%.
On to `Cn1ncc2c1-c1c(Oc3ccc(OC(F)(F)F)cc3)sc(C(N)=O)c1CC2` [Ref. Ex. 8, 1-methyl-8-[4-(trifluoromethoxy)phenoxy]-4,5-dihydro-1H-thieno[3,4-g]indazole-6-carboxamide], for which, in assay [1], the activity at 0.01 µM worked out at 190%. Moreover, in the assay with C2C12 cell, the activity at 1 µM was 274%. Moreover, in the assay on Female KKA^y mice (mixed feed dose 0.0003 %), the “plasma glucose (%)” value turned out to be 78.2 ± 22.2%, the “plasma neutral lipid (%)” value worked out at 72.2 ± 22.1% and the “plasma total cholesterol (%)” value was determined as 85.7 ± 11.5%.
Regarding `COCCOc1sc(C(N)=O)c2c1-c1c(cnn1C)CC2` [Ref. Ex. 4, 8-(2-methoxyethoxy)-1-methyl-4,5-dihydro-1H-thieno[3,4-g]indazole-6-carboxamide], the values for the activity at 1 µM (in assay [1] (compound at 1 μM); in the assay with C2C12 cell) were 138% and 239%, respectively.
For `CCCSc1sc(C(N)=O)c2c1-c1c(cnn1C)CC2` [Ref. Ex. 11, 1-methyl-8-(propylsulfanyl)-4,5-dihydro-1H-thieno[3,4-g]indazole-6-carboxamide] the same measures were 198% and 239%.
Take `COc1ccc(Oc2sc(C(N)=O)c3c2-c2c(cnn2C)CC3)cn1` [Ref. Ex. 35, 8-[(6-methoxypyridin-3-yl)oxy]-1-methyl-4,5-dihydro-1H-thieno[3,4-g]indazole-6-carboxamide]: the activity at 0.01 µM in assay [1] came to 192%. Also, the activity at 1 µM in the assay on C2C12 cell was determined as 228%.
On to `CNC(=O)c1sc(Oc2ccccc2)c2c1CCc1cnn(C)c1-2` [Ref. Ex. 6, N,1-dimethyl-8-phenoxy-4,5-dihydro-1H-thieno[3,4-g]indazole-6-carboxamide], for which the activity at 1 µM amounted to 164% in assay [1] (compound at 1 μM) and 187% in the assay with C2C12 cell.
On to `Cc1ccc(Oc2sc(C(N)=O)c3c2-c2c(cnn2C)CC3)cn1` [Ref. Ex. 31, 1-methyl-8-[(6-methylpyridin-3-yl)oxy]-4,5-dihydro-1H-thieno[3,4-g]indazole-6-carboxamide], for which the activity at 0.01 µM in assay [1] came out at 150%. In the assay on C2C12 cell, the activity at 1 µM came out at 253%.
For the compound `Cn1ncc2c1-c1c(OC3CCCC3)sc(C(N)=O)c1CC2` [Ref. Ex. 17, 8-(cyclopentyloxy)-1-methyl-4,5-dihydro-1H-thieno[3,4-g]indazole-6-carboxamide], the results for the activity at 1 µM (in assay [1] (compound at 1 μM); with C2C12 cell) were 177% and 141%, respectively.
Regarding `Cn1ncc2c1-c1c(Oc3ccc4ncccc4c3)sc(C(N)=O)c1CC2` [Ref. Ex. 18, 1-methyl-8-(quinolin-6-yloxy)-4,5-dihydro-1H-thieno[3,4-g]indazole-6-carboxamide], the activity at 0.01 µM in assay [1] was 160%. The activity at 1 µM with C2C12 cell is 220%.
`Cn1ncc2c1-c1c(Oc3ccc(S(C)(=O)=O)cc3)sc(C(N)=O)c1CC2` [Ref. Ex. 19, 1-methyl-8-[4-(methylsulfonyl)phenoxy]-4,5-dihydro-1H-thieno[3,4-g]indazole-6-carboxamide]: the activity at 1 µM in assay [1] (compound at 1 μM) was 183%; in the assay on C2C12 cell, 209%.
On to `Cn1ncc2c1-c1c(Oc3ccc[n+]([O-])c3)sc(C(N)=O)c1CC2` [Ref. Ex. 33, 1-methyl-8-[(1-oxidepyridin-3-yl)oxy]-4,5-dihydro-1H-thieno[3,4-g]indazole-6-carboxamide], for which the “creatine kinase activating action (%)” value in assay [1] (compound at 1 μM) was found to be 156%. For the same compound, the “lactic acid production promoting action (%)” value in the assay on C2C12 cell is 155%.
`Cn1ncc2c1-c1c(Oc3ccc4c(c3)OCO4)sc(C(N)=O)c1CC2` [Ref. Ex. 9, 8-(1,3-benzodioxol-5-yloxy)-1-methyl-4,5-dihydro-1H-thieno[3,4-g]indazole-6-carboxamide]: in assay [1], the activity at 0.01 µM came to 171%. The activity at 1 µM with C2C12 cell worked out at 196%. Besides, in the assay on Female KKA^y mice (mixed feed dose 0.001 %), the “plasma glucose (%)” value was determined as 42.9 ± 3.7%, the “plasma insulin (%)” value is on record as 13.7 ± 21.1%, the “plasma neutral lipid (%)” value is 51.0 ± 11.9% and the “plasma total cholesterol (%)” value worked out at 74.5 ± 14.4%.
